From patent US20180207228A1, “PEPTIDE COMBINATIONS AND USES THEREOF FOR TREATING GRASS ALLERGY” (ALK-Abelló A/S, priority 2015, published 2018)
Where no end group is shown, it is not given here.

System: allergen specific T cells
Test: T cell proliferation assay (72 h) on donor derived T cell lines (TCL02/TCL03)
Type: cell-based, human
Details: for donor coverage of homologue peptide compared with native Phleum peptide / T cell coverage of modified peptide compared to the parent peptide: 2 μg/ml; for donor coverage of homologue peptide compared with native Phleum peptide: TCL-02 DK-2, 21 donors; for T cell coverage of modified peptide compared to the parent peptide: TCL03-DK1 and DK2, 27 donors; for Proliferation % donor coverage (TCL-02 DK1): T cell lines TCL-02 DK1, 30 donors, hit criteria SI>=2, CPM>=1000; for Proliferation strength (TCL-02 DK1): T cell lines TCL-02 DK1, strength of response (average relative magnitude); for average relative magnitude: reference peptides of WO2010/089554, proliferation only
Description: Isolated PBMCs (peripheral blood mononuclear cells) obtained from the donors described in Example 2 were CD8 depleted and the T cell lines were established by stimulating the cultures with nPhl p1, mix of nPhl p 2 and […] 5 and […] established for each of the donors tested by stimulating with the mixture of above listed allergens. Grass allergic donors were recruited (cohort DK1 including 30 grass allergic individuals, DK2 including 24 grass allergic individuals and US1 including 15 grass allergic individuals). PBMCs were isolated from freshly drawn heparinized blood by gradient centrifugation on lymphoprep (Nycomed, Norway), washed twice and re-suspended in RPMI 1640 medium with HEPES and ultraglutamine (Cambrex, Belgium) supplemented with 5% v/v human AB-serum (Cambrex, Belgium), 100 units/ml penicillin, and 0.1 mg/ml streptomycin (Sigma, St Louis, USA) (referred to as 5% AB-medium). Aliquots of the isolated PBMCs were frozen and were thawed later to stimulate the T cell lines. Additionally either fresh or thawed PBMCs were used as antigen presenting cells (APCs) in the proliferation assay as described later. In some cases the PBMCs were freezed at this stage and thawed later on to continue the experiment as described in the following. The isolated PBMCs (fresh or thawed) were CD8 depleted by MACS magnetic depletion according to the manufacturer's instructions (Miltenyi Biotec, Bergisch Gladbach, Germany). On day 0 the CD8-depleted PBMCs (2×10^6/ml) were stimulated in 1 ml bulk cultures in AB medium in 24 well plates (Nunc, Denmark) with the mixture of natural allergens: nPhl p 1 (0.5 μg/ml), mix of […]). […] On day 14 cells were harvested to obtain T cell line generation 01 (referred to as TCL01). Restimulation of T cell lines were performed in AB-medium with the thawed autologous PBMCs (10^6/well, irradiated 2500 Rad), the above mixture of natural allergens (concentration as mentioned above), and PHA-P (0.5 μg/ml, Difco, Detroit, Mich., USA). rIL-2 was added at day 17, 18 and 19. On day 24 cells were harvested to obtain T cell line generation 02 (referred as TCL02). T cells were isolated, washed, counted and used for T cell proliferation assay as described later. Remaining cells were frozen for later thawing and re-stimulations. The T cell line generation 2 (TCL02) were thawed and were re-stimulated with allogeneic Epstein Bar Virus transformed lymphoblastoid cell lines (EBV) B cells (JY cells, 10^5/well, irradiated 3500 Rad), allogeneic PBMCs (10^6/well, irradiated 2500 Rad), and 0.5 μg/ml PHA-P and subsequent addition of rIL-2 at days 3-5 to generate T cell line generation 03 (referred to as TCL03). […] To summarize ELISpot experiments were carried out at day 14 (with TCL01) and proliferation assay on either day 24 (with TCL02) or at day 34 (with TCL03). […] To ensure that all T cell epitopes regions from the major and intermediate grass allergens of the grass were identified T cell screening was carried out with either overlapping peptides or selected peptides. […] These were overlapping 20-mer peptides spanning the entire full length amino acid sequence of […] and selected high binder peptides from Phl p 4 were tested. Additionally 21, 15 mer peptides were tested which were derived from various group 1 and 5 allergens. Also, 67 peptides from homologous grass allergens were tested. Finally some reference peptides and mixes thereof were also tested. The 15-mer peptides were selected on the basis of predicted and measured promiscuous HLA binding and of sequence homology between known proteins sequences from the relevant pooideae grasses and the Bermuda grass. […] To get comprehensive data from all the donors the peptides were tested in both Fluorospot/Elispot (day 14, TCL01) and proliferation (day 24, TCL02).

| Molecule | donor coverage of homologue peptide compared with native Phleum peptide | also measured |
| --- | --- | --- |
| KDKWIELKESWGAVWRIDTP-OH [compound 308] | comparable to the native peptides |  |
| GLGSRASYEIKSKEPVESSG-OH [compound 313] | low in donor coverage |  |
| WGAIWRIDPKKPLKGPFSIR-OH [compound 322] | not recognized by the T cell lines |  |
| Ac-WGAIWRIDTPDKLTGPFTVR-NH2 [compound 259] |  | T cell coverage of modified peptide compared to the parent peptide: markedly increased T cell coverage |
| IRLTSEGGAHLVQDDVIPAN-OH [compound 323] | low in donor coverage |  |
| VRYTTEGGTKSEFEDVIPEG-OH [compound 310] | low in donor coverage |  |
| SEFEDVIPEGWKADTSYSAK-OH [compound 311] | low in donor coverage |  |
| SLGAAYDSYKFIPTLVAAVK-OH [compound 350] | loose some of the donor coverage |  |
| PTPRTPPLLPPPRARDKATL-OH [compound 355] | better donor coverage than the native peptides |  |
| GRGSGSSFEIKSTKPESSSG-OH [compound 301] | comparable to the native peptides |  |
| CC(C)[C@H](NC(=O)[C@@H](NC(=O)[C@H](Cc1ccccc1)NC(=O)[C@H](CCCCN)NC(=O)[C@H](CC(=O)O)NC(=O)[C@H](CC(N)=O)NC(=O)[C@H](C)NC(=O)[C@@H]1CCCN1C(=O)[C@H](C)NC(=O)[C@H](C)NC(=O)[C@H](CC(N)=O)NC(=O)[C@H](C)NC(=O)[C@H](C)NC(=O)[C@@H](NC(=O)[C@H](C)NC(=O)[C@H](C)NC(=O)[C@@H](NC(=O)[C@@H](N)CCCNC(=N)N)[C@@H](C)O)[C@@H](C)O)[C@@H](C)O)C(=O)N[C@@H](Cc1ccccc1)C(=O)N[C@@H](CCC(=O)O)C(=O)O [compound 348] | comparable donor coverage |  |
| FIPMKSSWGA-OH [compound 135] |  | Proliferation % donor coverage (TCL-02 DK1): 13.79%; Proliferation strength (TCL-02 DK1): 1.50 |
| TAATPATPATPATPAAVPSG [compound 340] | better donor coverage than the native peptides |  |
| SDEFIPMKSSWGAIWRIDPK-OH [compound 321] | comparable to the native peptides |  |
| ASRRPWWASVPPADKFKTFA-OH [compound 356] | loose some of the donor coverage |  |
| YHFDLSGHAFGSMAKKGEEQ-OH [compound 303] | comparable to the native peptides |  |
| YHFDLSGKAFGAMAKKGQED-OH [compound 316] | comparable to the native peptides |  |

| Molecule | donor coverage of homologue peptide compared with native Phleum peptide | also measured |
| --- | --- | --- |
| SGKAFGAMAKKGQED-OH [compound 134, SGKAFGAMAKKGQED] |  | Proliferation % donor coverage (TCL-02 DK1): 27.59%; Proliferation strength (TCL-02 DK1): 4.00 |
| KYDAYVATLTEALR-OH [compound 137] |  | Proliferation % donor coverage (TCL-02 DK1): 27.59%; Proliferation strength (TCL-02 DK1): 6.30 |
| CC[C@H](C)[C@H](NC(=O)[C@H](C)NC(=O)[C@H](CCCCN)NC(=O)[C@@H](NC(=O)[C@H](CC(C)C)NC(=O)[C@H](C)NC(=O)[C@H](C)NC(=O)[C@H](CCC(=O)O)NC(=O)[C@H](Cc1ccccc1)NC(=O)[C@@H](NC(=O)[C@H](C)NC(=O)[C@H](Cc1ccc(O)cc1)NC(=O)[C@H](CCCCN)NC(=O)[C@@H](NC(=O)[C@H](CCC(=O)O)NC(=O)[C@@H]1CCCN1C(=O)[C@@H](N)CCCCN)C(C)C)C(C)C)[C@@H](C)O)C(=O)N[C@H](C(=O)O)[C@@H](C)O [compound 242] |  | Proliferation % donor coverage (TCL-02 DK1): 48.28%; Proliferation strength (TCL-02 DK1): 7.20 |
| PEVKYAVFEAALTKAIT-OH [compound 140] |  | Proliferation % donor coverage (TCL-02 DK1): 55.17%; Proliferation strength (TCL-02 DK1): 8.20; average relative magnitude: around 8 |
| WGAVWRIDTPDKLTGPFTVR-OH [compound 309] | low in donor coverage |  |
| IDKVDAAYRTAATAANAAPA-OH [compound 347] | comparable donor coverage |  |
| CC[C@H](C)[C@H](NC(=O)[C@H](CCCCN)NC(=O)[C@H](CCC(=O)O)NC(=O)[C@@H](NC(=O)[C@H](CC(C)C)NC(=O)[C@H](CCCCN)NC(=O)[C@H](CCC(N)=O)NC(=O)[C@@H](N)CCC(=O)O)[C@@H](C)CC)C(=O)N[C@@H](CC(N)=O)C(=O)N[C@@H](C)C(=O)NCC(=O)N[C@@H](Cc1ccccc1)C(=O)N[C@@H](CCCCN)C(=O)N[C@@H](C)C(=O)N[C@@H](C)C(=O)N[C@H](C(=O)N[C@@H](C)C(=O)N[C@@H](C)C(=O)N[C@@H](C)C(=O)N[C@@H](C)C(=O)O)C(C)C [compound 341] | better donor coverage than the native peptides |  |
| GFKAAVAAAAVVPPADKYKT-OH [compound 342] | better donor coverage than the native peptides |  |
| KKPEVKYAVFEAALTKAIT-OH [compound 143] |  | Proliferation % donor coverage (TCL-02 DK1): 48.28%; Proliferation strength (TCL-02 DK1): 7.50; average relative magnitude: around 8 |
| LVQDDVIPANWKPDTVYTSK-OH [compound 324] | low in donor coverage |  |
| KFIPTLVAAVKQAYAAKQAT-OH [compound 351] | loose some of the donor coverage |  |
| CC[C@H](C)[C@H](NC(=O)[C@H](Cc1ccccc1)NC(=O)[C@H](C)NC(=O)[C@H](CC(=O)O)NC(=O)[C@H](Cc1ccc(O)cc1)NC(=O)[C@H](CCCCN)NC(=O)[C@H](C)NC(=O)[C@@H](N)CCC(=O)O)C(=O)N[C@@H](C)C(=O)N[C@@H](C)C(=O)N[C@@H](CC(C)C)C(=O)N[C@H](C(=O)N[C@@H](CCC(=O)O)C(=O)N[C@@H](C)C(=O)N[C@@H](CC(C)C)C(=O)N[C@@H](CCCNC(=N)N)C(=O)N[C@H](C(=O)N[C@H](C(=O)N[C@@H](C)C(=O)NCC(=O)O)[C@@H](C)CC)C(C)C)[C@@H](C)O [compound 358] | comparable donor coverage |  |
| KSSWGAIWRIDPKKPLK-OH [compound 136] |  | Proliferation % donor coverage (TCL-02 DK1): 17.24%; Proliferation strength (TCL-02 DK1): 1.90 |
| APEVKYAVFEAGLTKAITAM-OH [compound 365] | loose some of the donor coverage |  |
| KFIPTLVAAVKQAYAAKQ-OH [compound 138] |  | Proliferation % donor coverage (TCL-02 DK1): 31.03%; Proliferation strength (TCL-02 DK1): 4.20 |
| WGAIWRIDTPDKLTGPFTVR-NH2 [compound 258] |  | T cell coverage of modified peptide compared to the parent peptide: markedly increased T cell coverage |
| LKKAVTAMSEAEK-OH [compound 139] |  | Proliferation % donor coverage (TCL-02 DK1): 20.69%; Proliferation strength (TCL-02 DK1): 2.80 |
